Experimental data as given in ChEMBL document CHEMBL1143418, “Colistin methanesulfonate against multidrug-resistant Acinetobacter baumannii in an in vitro pharmacodynamic model” (2007).
Values after ≈ are worked out from the molar mass of the structure shown. Active and inactive are the calls of the source. The calls are words filed in the database; no cut-off is given here.

Legend:
Acinetobacter baumannii [1] = assay: Antibacterial activity against multidrug-resistant Acinetobacter baumannii 06-74 isolate by CLSI microdilution test; format: functional
Acinetobacter baumannii [2] = assay: (§1) Antibacterial activity against multidrug-resistant Acinetobacter baumannii 06-74 isolate assessed as prevention of bacterial regrowth at 24 ug/ml first dose and 24 ug/ml of second dose administered 12 hrs after first dose as bolus dose in in vitro pharmacodynamic model vessel measured 2 to 3 hrs after last dose by time kill experiment; format: functional, organism-based
Acinetobacter baumannii [3] = assay: Antibacterial activity against multidrug-resistant Acinetobacter baumannii 06-74 isolate assessed as reduction in bacterial load at 50 ug/ml administered as continuous infusion in vitro pharmacodynamic model after 3 to 4 hrs by time kill experiment; format: functional
Acinetobacter baumannii [4] = assay: Antibacterial activity against multidrug-resistant Acinetobacter baumannii 06-74 isolate assessed as regrowth bacterial load at 50 ug/ml administered as continuous infusion in vitro pharmacodynamic model after 3 to 4 hrs by time kill experiment; format: functional
Acinetobacter baumannii [5] = assay: Antibacterial activity against 24 ug/mL bolus dose Colistin methanesulfonate exposed multidrug-resistant Acinetobacter baumannii 06-74 isolate by CLSI microdilution test; format: functional, organism-based
Acinetobacter baumannii [6] = assay: Antibacterial activity against 3 ug/mL Colistin methanesulfonate exposed multidrug-resistant Acinetobacter baumannii 06-74 isolate by CLSI microdilution test; format: functional, organism-based
Acinetobacter baumannii [7] = assay: Antibacterial activity against 6 ug/mL Colistin methanesulfonate exposed multidrug-resistant Acinetobacter baumannii 06-74 isolate by CLSI microdilution test; format: functional, organism-based
Acinetobacter baumannii [8] = assay: Antibacterial activity against 12 ug/mL Colistin methanesulfonate exposed multidrug-resistant Acinetobacter baumannii 06-74 isolate by CLSI microdilution test; format: functional, organism-based
Acinetobacter baumannii [9] = assay: Antibacterial activity against 24 ug/mL Colistin methanesulfonate exposed multidrug-resistant Acinetobacter baumannii 06-74 isolate by CLSI microdilution test; format: functional, organism-based
Acinetobacter baumannii [10] = assay: Antibacterial activity against multidrug-resistant Acinetobacter baumannii 06-74 isolate assessed as reduction in bacterial load at 3 ug/ml administered as bolus dose after 2 to 3 hrs by time kill experiment; format: functional, organism-based
Acinetobacter baumannii [11] = assay: Antibacterial activity against multidrug-resistant Acinetobacter baumannii 06-74 isolate assessed as reduction in bacterial load at 6 ug/ml administered as bolus dose after 2 to 3 hrs by time kill experiment; format: functional, organism-based
Acinetobacter baumannii [12] = assay: Antibacterial activity against multidrug-resistant Acinetobacter baumannii 06-74 isolate assessed as reduction in bacterial load at 12 ug/ml administered as bolus dose after 2 to 3 hrs by time kill experiment; format: functional, organism-based
Acinetobacter baumannii [13] = assay: Antibacterial activity against multidrug-resistant Acinetobacter baumannii 06-74 isolate assessed as reduction in bacterial load at 24 ug/ml administered as bolus dose after 2 to 3 hrs by time kill experiment; format: functional, organism-based
Acinetobacter baumannii [14] = assay: Antibacterial activity against multidrug-resistant Acinetobacter baumannii 06-74 isolate assessed as regrowth bacterial load at 3 ug/ml administered as bolus dose after 24 hrs by time kill experiment; format: functional, organism-based
Acinetobacter baumannii [15] = assay: Antibacterial activity against multidrug-resistant Acinetobacter baumannii 06-74 isolate assessed as regrowth bacterial load at 6 ug/ml administered as bolus dose after 24 hrs by time kill experiment; format: functional, organism-based
Acinetobacter baumannii [16] = assay: Antibacterial activity against multidrug-resistant Acinetobacter baumannii 06-74 isolate assessed as regrowth bacterial load at 12 ug/ml administered as bolus dose after 24 hrs by time kill experiment; format: functional, organism-based
Acinetobacter baumannii [17] = assay: Antibacterial activity against multidrug-resistant Acinetobacter baumannii 06-74 isolate assessed as regrowth bacterial load at 24 ug/ml administered as bolus dose after 24 hrs by time kill experiment; format: functional, organism-based
Acinetobacter baumannii [18] = assay: as §1, with “as reduction in” for “as prevention of”, “bacterial load” for “bacterial regrowth”, “at 3” for “at 24”; format: functional, organism-based
Acinetobacter baumannii [19] = assay: as §1, with “as reduction in” for “as prevention of”, “bacterial load” for “bacterial regrowth”, “at 6” for “at 24”; format: functional, organism-based
Acinetobacter baumannii [20] = assay: as §1, with “as reduction in” for “as prevention of”, “bacterial load” for “bacterial regrowth”, “at 12” for “at 24”; format: functional, organism-based
Acinetobacter baumannii [21] = assay: as §1, with “reduction in” for “prevention of”, “load” for “regrowth”; format: functional, organism-based
Acinetobacter baumannii [22] = assay: as §1, with “at 3” for “at 24”; format: functional, organism-based
Acinetobacter baumannii [23] = assay: as §1, with “at 6” for “at 24”; format: functional, organism-based
Acinetobacter baumannii [24] = assay: as §1, with “at 12” for “at 24”; format: functional, organism-based
Acinetobacter baumannii [25] = assay: Antibacterial activity against multidrug-resistant Acinetobacter baumannii 06-74 isolate by time kill experiment; format: functional, organism-based

NCC[C@H](O)C(=O)N[C@@H]1C[C@H](N)[C@@H](O[C@H]2O[C@H](CN)[C@@H](O)[C@H](O)[C@H]2O)[C@H](O)[C@H]1O[C@H]1O[C@H](CO)[C@@H](O)[C@H](N)[C@H]1O [AMIKACIN]
MIC (Acinetobacter baumannii [1]): ≤ 2 µg/mL

C[C@H]1COc2c(N3CCN(C)CC3)c(F)cc3c(=O)c(C(=O)O)cn1c23.C[C@H]1COc2c(N3CCN(C)CC3)c(F)cc3c(=O)c(C(=O)O)cn1c23.O [LEVOFLOXACIN]
MIC (Acinetobacter baumannii [1]): ≥ 8 µg/mL

C[C@@H](O)[C@H]1C(=O)N2C(C(=O)O)=C(S[C@@H]3CN[C@H](C(=O)N(C)C)C3)[C@H](C)[C@H]12 [MEROPENEM]
MIC (Acinetobacter baumannii [1]): 1 µg/mL (≈ 2.61 µM)

GENTAMICIN
MIC (Acinetobacter baumannii [1]): > 16 µg/mL

COLISTIN
Activity (Acinetobacter baumannii [2]): inactive | Activity (Acinetobacter baumannii [3]): inactive | Activity (Acinetobacter baumannii [4]): inactive | MIC (Acinetobacter baumannii [5]): > 128 µg/mL | MIC (Acinetobacter baumannii [6]): 64 µg/mL | MIC (Acinetobacter baumannii [7]): > 64 µg/mL | MIC (Acinetobacter baumannii [8]): 128 µg/mL | MIC (Acinetobacter baumannii [9]): > 32 µg/mL | log10CFU/ml (Acinetobacter baumannii [10]): 3 | log10CFU/ml (Acinetobacter baumannii [11]): 3 | log10CFU/ml (Acinetobacter baumannii [12]): 3 | log10CFU/ml (Acinetobacter baumannii [13]): 3 | log10CFU/ml (Acinetobacter baumannii [14]): 7 | log10CFU/ml (Acinetobacter baumannii [15]): 7 | log10CFU/ml (Acinetobacter baumannii [16]): 7 | log10CFU/ml (Acinetobacter baumannii [17]): 7 | Activity (Acinetobacter baumannii [18]): inactive | Activity (Acinetobacter baumannii [19]): inactive | Activity (Acinetobacter baumannii [20]): inactive | Activity (Acinetobacter baumannii [21]): inactive | Activity (Acinetobacter baumannii [22]): inactive | Activity (Acinetobacter baumannii [23]): inactive | Activity (Acinetobacter baumannii [24]): inactive

CC1(C)S[C@@H]2[C@H](NC(=O)[C@H](N)c3ccccc3)C(=O)N2[C@H]1C(=O)O [AMPICILLIN]
MIC (Acinetobacter baumannii [1]): ≥ 32 µg/mL

O=C1CN(/N=C/c2ccc([N+](=O)[O-])o2)C(=O)N1 [NITROFURANTOIN]
MIC (Acinetobacter baumannii [1]): ≥ 512 µg/mL

CC(C)(O/N=C(\C(=O)N[C@@H]1C(=O)N2C(C(=O)[O-])=C(C[n+]3ccccc3)CS[C@H]12)c1csc(N)n1)C(=O)O [CEFTAZIDIME]
log10CFU/ml (Acinetobacter baumannii [3]): 3 | log10CFU/ml (Acinetobacter baumannii [4]): 6.5 | MIC (Acinetobacter baumannii [1]): ≥ 64 µg/mL

C[C@@H](O)[C@H]1C(=O)N2C(C(=O)O)=C(SCCNC=N)C[C@H]12 [IMIPENEM ANHYDROUS]
MIC (Acinetobacter baumannii [1]): ≤ 1 µg/mL

COLISTIMETHATE SODIUM
MIC (Acinetobacter baumannii [25]): > 2050 µg/mL | MIC (Acinetobacter baumannii [1]): 2 µg/mL
